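Step 1: Grow cells in 96-well plates. Step 2: Expose to compound for 48 hours at 5 concentrations. Step 3: Interpolate endpoints linearly; if unreached, use highest concentration. TGI marks complete inhibition of growth.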
Experiments:
Assay in all cases: NCI tumour cell line growth inhibition, 48 h
NCI-H226 lung = test system: NCI-H226 lung
KM12 colon = test system: KM12 colon
SK-MEL-28 melanoma = test system: SK-MEL-28 melanoma
NCI-H23 lung = test system: NCI-H23 lung
SW-620 colon = test system: SW-620 colon
EKVX NSCLC = test system: EKVX NSCLC
NCI/ADR-RES ovarian = test system: NCI/ADR-RES ovarian
HL-60(TB) leukemia = test system: HL-60(TB) leukemia
RPMI-8226 leukemia = test system: RPMI-8226 leukemia
SF-539 CNS = test system: SF-539 CNS
MDA-N = test system: MDA-N
OVCAR-4 ovarian = test system: OVCAR-4 ovarian
MOLT-4 leukemia = test system: MOLT-4 leukemia
786-0 renal = test system: 786-0 renal
LOX IMVI melanoma = test system: LOX IMVI melanoma
SK-OV-3 ovarian = test system: SK-OV-3 ovarian
SNB-19 CNS = test system: SNB-19 CNS
HS 578T breast = test system: HS 578T breast
PC-3 prostate = test system: PC-3 prostate

SMILES	TGI (NCI-H226 lung) [µM]	TGI (KM12 colon) [µM]	TGI (SK-MEL-28 melanoma) [µM]	TGI (NCI-H23 lung) [µM]	TGI (SW-620 colon) [µM]	TGI (EKVX NSCLC) [µM]	TGI (NCI/ADR-RES ovarian) [µM]	TGI (HL-60(TB) leukemia) [µM]	TGI (RPMI-8226 leukemia) [µM]	TGI (SF-539 CNS) [µM]	TGI (MDA-N) [µM]	TGI (OVCAR-4 ovarian) [µM]	TGI (MOLT-4 leukemia) [µM]	TGI (786-0 renal) [µM]	TGI (LOX IMVI melanoma) [µM]	TGI (SK-OV-3 ovarian) [µM]	TGI (SNB-19 CNS) [µM]	TGI (HS 578T breast) [µM]	TGI (PC-3 prostate) [µM]
O=c1[nH]nc(-c2ccccc2)n1/N=C/c1ccccc1Cl	> 100	32.6	> 100	87.7	> 100	> 100	67.9	48	94.4	> 100	> 100	> 100	56.5	> 100	> 100	> 100	> 100	> 100	57.6
COC(=O)C1=C(C)NC(C)=C(C(=O)OC)C1c1ccc(N=O)cc1	39.3	33.4	33.4	38.9	12.9	34.1	50.9	> 100	5.02	32	16.6	14.2	> 100	27.7	11.6	25.5	> 81.2	40.8	29.3
CSc1nc(C)c(CCOC(C)=O)c(Cl)n1	> 100	> 100	> 100	> 100	> 100	> 100	> 100	> 100	> 100	> 100	> 100	> 100	> 100	> 100	> 100	> 100	> 100	> 100	> 100
COC(=O)C1Cc2ccc3c(c2C1=O)CCCC3 (centres undefined)	> 100	> 100	> 100	> 100	> 100	> 100	> 100	> 100	> 100	> 100	> 100	> 100	> 100	> 100	> 100	> 100	> 100	> 100	> 100
O=C1NC(N2CCCCC2)=N/C1=C\c1ccc(Cl)cc1	96.1	> 100	> 100	> 100	> 100	> 100	> 100	> 100	> 100	> 100	> 100	> 100	> 100	79.9	> 100	> 100	> 100	> 100	> 100
O=C(CCc1ccccc1)n1cccc1CO	> 100	> 100	> 100	> 100	> 100	> 100	> 100	> 100	> 100	> 100	> 100	> 100	> 100	> 100	> 100	> 100	> 100	> 100	> 100

Reference: PubChem BioAssay (NCI)
